Data set [1] concerns A549. Put plainly: Antitumor activity against human A549 cells xenografted in BALB/c nude mouse assessed as tumor inhibition rate at 30 mg/kg, ip administered for 21 days. Format: functional. More on the design: scale not given: the % may be the effect or the level left. To be noted: time 21 day. On the technique in general: Xenograft models place foreign cells or tissue in a host animal.

Data set [2] has as its system A549. The data set can be described thus: Antitumor activity against human A549 cells xenografted in BALB/c nude mouse assessed as tumor volume change at 30 mg/kg, ip administered for 21 days. To be noted: time 21 day. Type of data set: functional.
Data set [3] relates to A549. Put plainly: Antitumor activity against human A549 cells xenografted in BALB/c nude mouse assessed as fluorescence intensity at 30 mg/kg, ip administered for 21 days. The following applies: time 21 day. Format: functional.
The target of data set [4] is NAD(P)H dehydrogenase [quinone] 1 (Homo sapiens) (UniProt P15559). The data set can be described thus: Substrate activity at recombinant human NQO1 assessed as enzyme activity by measuring oxidation of NADPH incubated for 5 mins measured per micromol of NADPH by NADPH recycling assay.
Data set [5] can be described thus: Drug uptake in NQO1-deficient human NCI-H596 cells at 10 uM incubated for 20 mins by confocal microscopy. Format: ADME, cell-based. The following applies: nci-h596, 20 min.
Data set [6] can be described thus: Stability of compound in rat plasma assessed as compound remaining at 37 degree C measured after 24 hrs by HPLC analysis. Type of data set: ADME, cell-free.
Data set [7] in a line: Drug uptake in BALB/c nude mouse infected with human A549 cells at 5 mg/kg, iv measured upto 15 mins by fluorescence spectrophotometric analysis. Type of data set: ADME, organism-based. To be noted: in vivo, 0.25 h.
Data set [8] deals with A549. The data set can be described thus: Cytotoxicity against human A549 cells assessed as growth inhibition measured after 72 hrs by MTT assay. Type of data set: functional. Details: scale not given: the % may be the effect or the level left; call rule not given here. In general terms: Tetrazolium dyes change colour on reduction, which living cells bring about.
A short description of data set [9]: Stability of compound in PBS at pH 4 to 9 assessed as compound remaining at 37 degree C measured after 24 hrs by HPLC analysis. Format: physicochemical. The following applies: buffer, pH 4, 24 h.
The nature of data set [10]: Stability of compound in mouse plasma assessed as compound remaining at 37 degree C measured after 24 hrs by HPLC analysis. Type of data set: ADME, cell-free.
Data set [11] in a line: Water solubility of compound by HPLC analysis. Type of data set: physicochemical.
Data set [12] in a line: Stability of compound in human plasma assessed as compound remaining at 37 degree C measured after 24 hrs by HPLC analysis. Type of data set: ADME, cell-free.
Data set [13] in a line: Drug uptake in NQO1 rich human A549 cells at 10 uM incubated for 20 mins by confocal microscopy. Format: ADME, cell-based. To be noted: a549, 20 min.

The source of these data is ChEMBL document CHEMBL5053491, “Rational designed highly sensitive NQO1-activated near-infrared fluorescent probe combined with NQO1 substrates in vivo: An innovative strategy for NQO1-overexpressing cancer theranostics” (Eur J Med Chem, 2021).

Structures are written as SMILES. ≈ marks a conversion by molar mass, not a printed value.

Chain of NAD(P)H dehydrogenase [quinone] 1 (Homo sapiens) (P15559 whole entry): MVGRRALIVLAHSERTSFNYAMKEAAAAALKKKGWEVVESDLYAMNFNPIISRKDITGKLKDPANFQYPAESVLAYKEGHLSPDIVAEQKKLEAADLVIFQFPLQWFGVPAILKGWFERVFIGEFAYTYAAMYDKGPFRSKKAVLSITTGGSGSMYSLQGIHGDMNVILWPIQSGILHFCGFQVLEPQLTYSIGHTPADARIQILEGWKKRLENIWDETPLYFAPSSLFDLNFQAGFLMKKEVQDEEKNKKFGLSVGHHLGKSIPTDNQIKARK

Consider `Cc1cc2c(cc1C)-c1oc(CN3CCN(C)CC3)c(C)c1C(=O)C2=O`, for which the values for the Activity in the data set on A549 [1] and in the data set on A549 [2] were 79.8% and 77%, respectively.
Consider `O=c1[nH]cc(F)c(=O)[nH]1` [FLUOROURACIL], for which, in the data set with A549 [3], the Activity was 75.7%.
For `CC(C)(CC(=O)O)C1=CC(=O)c2ccccc2C1=O`, the Activity in data set [4] is 1220 µmol/min.
Same read-out and setting: under `CC1=C(C)C(=O)C(C(C)(C)CC(=O)O)=C(C)C1=O` stands 1070 µmol/min; under `CC1=C(C(C)(C)CC(=O)O)C(=O)c2ccccc2C1=O`, 1480 µmol/min.
With `CC1(C)CCC2=C(O1)c1ccccc1C(=O)C2=O` [LAPACHONE], the Activity was 67.7% in the data set on A549 [1] and 69.1% in the data set with A549 [2].
Regarding `O=C(O)CCC1=CC(=O)c2ccccc2C1=O`, in data set [4], the Activity came to 900 µmol/min.
The solubility is the dissolved amount per volume that the medium holds. For the molecule `CC1=C(C(C)(C)CC(=O)N(C)c2ccc(COC(=O)N3c4ccc(N(C)C)cc4Sc4cc(N(C)C)ccc43)cc2)C(=O)c2ccccc2C1=O`, the Drug uptake entry in [5] is “Not Active”; in [7], “Active”; in data set [13], “Active”. Also, the results for the Activity in the data set with A549 [3] and in the data set with A549 [8] were 75.6% and over 80%, respectively. In addition, the Stability entry in data set [6], in data set [9], in data set [10] and in [12] was “Stable” in each case. Also, the solubility in data set [11] came to 6.5 µg/mL (≈ 9.25 µM).
As to `CC1=C(CCC(=O)O)C(=O)c2ccccc2C1=O`, the Activity in data set [4] came out at 1080 µmol/min.
As for `CC1=C(C)C(=O)C(C(C)(C)CC(=O)N(C)c2ccc(COC(=O)N3c4ccc(N(C)C)cc4Sc4cc(N(C)C)ccc43)cc2)=C(C)C1=O`, the Drug uptake entry in data set [7] is recorded as “Not Active”.
